In one assay the test system is platelet aggregation. Nature of the assay: Platelet aggregation-inhibiting action in rabbit platelet-rich plasma (aggregometer). Type of assay: cell-based. The following applies: Oryctolagus cuniculus, 0.05 h, rabbit PRP, 37°C, 3 min incubation. On the procedure: Blood was drawn from the carotid artery of a rabbit using a syringe containing 1/10 volume of a 3.8% solution of sodium citrate. The blood was centrifuged to obtain platelet-rich plasma (PRP: 5 x 10^5 cells/µl).
In a cuvette were placed 200 µl of said PRP and 25 µl of a physiological saline solution. The cuvette was set on an aggregometer and warmed at 37°C for 2 min. Into the cuvette was then added 1.25 µl of an ethanol solution of a pyrazine derivative to be tested. After incubated for 3 min., a solution of a platelet-aggregation inducer, arachidonic acid or collagen, was added thereto. Measurements were made for platelet aggregation using an aggregometer (Hematracer IV; Niko Biosciences K.K.). […] Acetylsalicylic acid was used as a comparison.
The 50% inhibitory concentration as shown in the table means the concentration of the solution of a pyrazine derivative required for inhibiting the aggregation of platelets by introducing said pyrazine derivative when the platelet aggregatiqn in the absence of any pyrazine derivative of the invention is taken as 100%.

A further assay deals with T1, cyclooxygenase (Oryctolagus cuniculus, UniProt O97554).
T1 construct: The washed platelets thus produced were used as an enzyme source for cyclooxygenase; from tissue; host or cells: washed platelets from rabbit carotid artery blood
T1 sequence (O97554 31-606): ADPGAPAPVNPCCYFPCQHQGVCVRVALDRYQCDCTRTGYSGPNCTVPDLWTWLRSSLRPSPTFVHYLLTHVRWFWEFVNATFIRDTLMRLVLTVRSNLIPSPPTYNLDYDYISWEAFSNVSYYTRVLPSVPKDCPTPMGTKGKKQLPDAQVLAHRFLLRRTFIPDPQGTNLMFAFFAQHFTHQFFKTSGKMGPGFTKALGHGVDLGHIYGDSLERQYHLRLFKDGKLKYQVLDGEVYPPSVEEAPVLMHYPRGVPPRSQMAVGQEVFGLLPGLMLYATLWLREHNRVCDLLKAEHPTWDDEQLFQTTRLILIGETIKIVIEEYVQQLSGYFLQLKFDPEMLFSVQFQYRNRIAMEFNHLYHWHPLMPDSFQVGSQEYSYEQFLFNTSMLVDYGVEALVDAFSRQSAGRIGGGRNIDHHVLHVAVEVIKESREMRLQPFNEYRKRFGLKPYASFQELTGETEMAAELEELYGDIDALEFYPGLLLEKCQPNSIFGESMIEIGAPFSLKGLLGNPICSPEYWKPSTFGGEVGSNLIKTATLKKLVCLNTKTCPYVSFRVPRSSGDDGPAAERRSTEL
Nature of the assay: Cyclooxygenase-inhibiting activity, washed platelets as enzyme source, 14C-arachidonic acid, TLC radiochromatogram. Type of assay: biochemical. To be noted: washed rabbit platelets, 37°C for 3 min; sum of radioactivities of prostaglandin E2, prostaglandin D2 and HHT; read-out: 50% inhibitory concentration (mole). As to the method: In a centrifuge tube was collected 9 volumes of blood from the carotid artery of a rabbit per volume of a 3.8% solution of sodium citric acid contained therein using a canula. Platelet-rich plasma was obtained by centrifugation. To the platelet-rich plasma was added a 77 mM solution of EDTA in a volume of 1/10 per volume of said plasma. After mixing thoroughly, the mixture was subjected to centrifugation at 2500 r.p.m. at room temperature for 10 min. The supernatant was discarded, and the platelets were suspended in approximately 3 ml of a wash (134 mM of sodium chloride, 15 mM of trisaminomethane, 1 mM of EDTA and 5 mM of D-glucose dissolved in distilled water with a pH adjusted to 7.4 with 1N-hydrogen chloride), and the suspension was centrifuged at 2000 rpm at room temperature for 10 min. The supernatant was discarded, and the precipitated platelets were suspended in a 1/15 M phosphate buffer solution at pH 8.0 to adjust the number of the platelets to 6-8 x 10^5 cells/µl.
The washed platelets thus produced were used as an enzyme source for cyclooxygenase. […]
Development was made with a developing solvent (chloroform/methanol/acetic acid/water = 90:8:1:0.8) by approximately 18 cm, and then the inhibiting activity was determined by measuring sum of the radioactivities of prostaglandin E2' prostaglandin D2 and HHT by a radiochromatogram scanner.

The mark [1] stands for this setting: aggregation caused by arachidonic acid (80 µM), read-out: 50% aggregation-inhibitory concentration (mole) Arachidonic acid.
The mark [2] stands for this setting: aggregation caused by collagen (15 µg/ml), read-out: 50% aggregation-inhibitory concentration (mole) Collagen.

Like-named read-outs stand apart in the source and are kept apart here.

Take `CCc1nc(CC)c(-c2ccccc2)nc1-c1ccccc1` [Example 1, 2,6-diethyl-3,5-diphenylpyrazine]: the results for the IC50 in the assay on platelet aggregation (setting [1]) and in the assay on platelet aggregation (setting [2]) were 1700 nM and 390 nM, respectively.
Consider `c1ccc(-c2ncc(Cc3cccc4ccccc34)nc2-c2ccccc2)cc1` [Example 10, 2,3-diphenyl-5-(l-naphthyl)methylpyrazine], for which the IC50 with platelet aggregation (setting [1]) turned out to be 43000 nM; in the assay on platelet aggregation (setting [2]), 31000 nM.
For `Clc1ccccc1Cc1cnc(-c2ccccc2)c(-c2ccccc2)n1` [Example 5, 2,3-diphenyl-5-(o-chlorobenzyl)pyrazine], in that order: 4400 nM and 36000 nM.
The matching figures for `COc1ccc(-c2nc(Cl)c(Cl)nc2-c2ccc(OC)cc2)cc1` [Example 11, 2,3-bis(p-methoxyphenyl)-5,6-dichloropyrazine]: 14 nM and 220 nM.
For `COc1ccc(-c2ncc(C(=O)O)nc2-c2ccc(OC)cc2)cc1` [Example 14, 2,3-bis(p-methoxyphenyl)-pyrazine-5-carboxylic acid], in that order: 260 nM and 5000 nM.
Regarding `Clc1ccc(Cc2cnc(-c3ccccc3)c(-c3ccccc3)n2)cc1` [Example 7, 2,3-diphenyl-5-(p-chlorobenzyl)pyrazine], the IC50 with platelet aggregation (setting [1]) was found to be 82000 nM; with platelet aggregation (setting [2]), 34000 nM.
The matching figures for `CCc1ncc(-c2ccccc2)nc1-c1ccccc1` [Example 2, 2-ethyl-3,5-diphenylpyrazine]: 6000 nM and 19000 nM.
For `COc1ccc(-c2nc3c(nc2-c2ccc(OC)cc2)CCCC3)cc1` [Example 3, 2,3-bis(p-methoxyphenyl)-5,6,7,8-tetrahydroquinoxaline], in that order: 15 nM and 24 nM.
The matching figures for `Clc1cccc(Cc2cnc(-c3ccccc3)c(-c3ccccc3)n2)c1` [Example 6, 2,3-diphenyl-5-(m-chlorobenzyl)pyrazine]: 4500 nM and 44000 nM.
`Brc1ccc(Cc2cnc(-c3ccccc3)c(-c3ccccc3)n2)cc1` [Example 8, 2,3-diphenyl-5-(p-bromobenzyl)pyrazine]: the IC50 in the assay on platelet aggregation (setting [1]) is 16000 nM; in the assay with platelet aggregation (setting [2]), 100000 nM.
For `CN(C)c1ccc(Cc2cnc(-c3ccccc3)c(-c3ccccc3)n2)cc1` [Example 9, 2,3-diphenyl-5-(p-dimethylaminobenzyl)pyrazine], in that order: 84000 nM and 74000 nM.
On to `COc1ccc(-c2ncc(C#N)nc2-c2ccc(OC)cc2)cc1` [Example 13, 2,3-bis(p-methoxyphenyl)-5-cyanopyrazine], for which the IC50 was determined as 24 nM in the assay with platelet aggregation (setting [1]), 15 nM in the assay on platelet aggregation (setting [2]) and 5000 nM at cyclooxygenase.
Consider `Cc1cnc(-c2ccc(C#N)cc2)c(-c2ccc(C#N)cc2)n1` [X=-CN, R2=H, R3=-CH3], for which the IC50 in the assay on platelet aggregation (setting [1]) and in the assay on platelet aggregation (setting [2]) was 1000 nM throughout.
On to `COC(=O)c1cnc(-c2ccc(OC)cc2)c(-c2ccc(OC)cc2)n1` [Example 15], for which the IC50 in the assay on platelet aggregation (setting [1]) came out at 3 nM; with platelet aggregation (setting [2]), 130 nM.
For `COc1ccc(-c2nc3ccccc3nc2-c2ccc(OC)cc2)cc1` [Example 4, 2,3-bis(p-methoxyphenyl)quinoxaline], in that order: 38 nM and 9.8 nM.
The matching figures for `COc1ccc(-c2ncc(Cl)nc2-c2ccc(OC)cc2)cc1` [Example 12, 2,3-bis(p-methoxyphenyl)-5-chloropyrazine]: 3.8 nM and 9.8 nM.

Values taken from EP0397859A1, “PYRAZINE DERIVATIVES AND MEDICINAL PREPARATION CONTAINING SAME” (TERUMO KABUSHIKI KAISHA, priority 1987, dated 1989).
